{"source": "patent US5032384A", "about": "“Compositions and method for the treatment of disease” (Block Drug Company, Inc., priority 1989, dated 1991)", "target": "cyclooxygenase cascade", "test": "Inhibition of PGE2 synthesis (assay of cyclooxygenase products, 14C arachidonate incorporation) in homogenate of inflamed human gingival tissue", "assay_type": "biochemical", "method": "A large pool of inflamed human gingival tissue was obtained from patients with periodontitis who were undergoing routine periodontal surgery. The tissues were immediately stored in liquid nitrogen prior to use or were used fresh. The assay of cyclooxygenase products was performed as a modification of the assay of El Attar et al., J. Periodon. […] Pooled tissue was weighed and homogenized at 0°-4° C. with a Polytron® (Brinkman) homogenizer in a 0.2 M TRIS buffer, pH 8.0, at a final concentration of 20 mg/ml. After centrifugation for 10 minutes at 1200×g, the supernatant was divided into 3 ml aliquots for incubation in the presence or absence of a test compound.\nProstanoids were extracted as described by Powell, Methods in Eng., 86, 467 (1982) using a Sep-Pak-C18 cartridge from Waters Associates. The Sep-Pak was prepared by the sequential elution of 20 milliliters of ethanol and 20 milliliters of water. The sample was then adjusted to 15% ethanol, pH 3.0, with acetic acid and applied to the column. […]\nThese are readily separated and quantified using a 4.6×100 nm RP-18 Spheri-5u column from Brownle Labs. A Flow-One radioactivity monitor simultaneously measured radioactivity while monitoring elution at 192 nanometers.\nThe net incorporation of the 14C arachidonate was measured in the absence of the test substance in order to determine the maximum activity of the cyclooxygenase cascade."}
{"molecule": "Cc1c(C)c2c(c(C)c1O)CCC(C)(CCCC(C)CCCC(C)CCCC(C)C)O2", "note": "(stereo not drawn) [alpha-tocopherol]", "values": [{"measurement": "IC50 value of alpha-tocopherol (inhibition of PGE2 synthesis)", "setting": "change in presence of ketoprofen", "value": "lowered"}]}
{"molecule": "CC(C(=O)O)c1cccc(C(=O)c2ccccc2)c1", "note": "(centres unmarked) [ketoprofen]", "values": [{"measurement": "IC50 value of ketoprofen (inhibition of PGE2 synthesis)", "setting": "change in presence of alpha-tocopherol", "value": "lowered"}]}
